This note sets out measurements from patent publication US8124601B2, “Compounds for the treatment of Hepatitis C” (Bristol-Myers Squibb Company, priority 2007, dated 2012).

For one assay, the target named is T1, HCV NS5B (Hepatitis C virus genotype 1b, UniProt Q9WMX2).
T1 construct: The protein was expressed with an 18 amino acid C-terminal truncation to enhance the solubility; made in house; host or cells: E. coli BL21(DE3)
Put plainly: Modified HCV NS5B RdRp enzyme assay (preincubation protocol). The assay is classed as biochemical. The method, then: HCV NS5B RdRp cloning, expression, and purification. The cDNA encoding the NS5B protein of HCV, genotype 1b, was cloned into the pET21a expression vector. The protein was expressed with an 18 amino acid C-terminal truncation to enhance the solubility. The E. coli competent cell line BL21(DE3) was used for expression of the protein. Cultures were grown at 37° C. for ˜4 hours until the cultures reached an optical density of 2.0 at 600 nm. The cultures were cooled to 20° C. and induced with 1 mM IPTG. Fresh ampicillin was added to a final concentration of 50 μg/ml and the cells were grown overnight at 20° C.
Cell pellets (3 L) were lysed for purification to yield 15-24 mgs of purified NS5B. The lysis buffer consisted of 20 mM Tris-HCl, pH 7.4, 500 mM NaCl, 0.5% triton X-100, 1 mM DTT, 1 mM EDTA, 20% glycerol, 0.5 mg/ml lysozyme, 10 mM MgCl2, 15 ug/ml deoxyribonuclease I, and Complete TM protease inhibitor tablets (Roche). After addition of the lysis buffer, frozen cell pellets were resuspended using a tissue homogenizer. To reduce the viscosity of the sample, aliquots of the lysate were sonicated on ice using a microtip attached to a Branson sonicator. The sonicated lysate was centrifuged at 100,000×g for 1 hr at 4° C. and filtered through a 0.2 μm filter unit (Corning).
The protein was purified using two sequential chromatography steps: Heparin sepharose CL-6B and polyU sepharose 4B (Pharmacia). The chromatography buffers were identical to the lysis buffer but contained no lysozyme, deoxyribonuclease I, MgCl2 or protease inhibitor and the NaCl concentration of the buffer was adjusted according to the requirements for charging the protein onto the column. Each column was eluted with a NaCl gradient which varied in length from 5-50 column volumes depending on the column type. After the final chromatography step, the resulting purity of the enzyme is >90% based on SDS-PAGE analysis. The enzyme was aliquoted and stored at −80° C.
Standard HCV NS5B RdRp enzyme assay. HCV RdRp genotype 1b assays were run in a final volume of 60 μl in 96 well plates (Corning 3600). The assay buffer is composed of 20 mM Hepes, pH 7.5, 2.5 mM KCl, 2.5 mM MgCl2, 1 mM DTT, 1.6 U RNAse inhibitor (Promega N2515), 0.01 mg/ml BSA (Sigma B6917), and 2% glycerol. All compounds were serially diluted (3-fold) in DMSO and diluted further in water such that the final concentration of DMSO in the assay was 2%. HCV RdRp genotype 1b enzyme was used at a final concentration of 28 nM. A polyA template was used at 6 nM, and a biotinylated oligo-dT12 primer was used at 180 nM final concentration. Template was obtained commercially (Amersham 27-4110). Biotinylated primer was prepared by Sigma Genosys. 3H-UTP was used at 0.6 μCi (0.29 μM total UTP). Reactions were initiated by the addition of enzyme, incubated at 30° C. for 60 min, and stopped by adding 25 μl of 50 mM EDTA containing SPA beads (4 μg/μl, Amersham RPNQ 0007). Plates were read on a Packard Top Count NXT after >1 hr incubation at room temperature.
Modified HCV NS5B RdRp enzyme assay. A modified enzyme assay was performed essentially as described for the standard enzyme assay except for the following: The biotinylated oligo dT12 primer was precaptured on streptavidin-coated SPA beads by mixing primer and beads in assay buffer and incubating at room temperature for one hour. Unbound primer was removed after centrifugation. The primer-bound beads were resuspended in 20 mM Hepes buffer, pH 7.5 and used in the assay at final concentrations of 20 nM primer and 0.67 μg/μl beads. Order of addition in the assay: enzyme (1.75 nM) was added to diluted compound followed by the addition of a mixture of template (0.36 nM), 3H-UTP (0.6 μCi, 0.29 μM), and primer-bound beads, to initiate the reaction; concentrations given are final. Reactions were allowed to proceed for 4 hours at 30° C.
IC50 values for compounds were determined using seven different [I]. […]

The test system of a further assay is HCV replicon cells. Put plainly: HCV replicon FRET assay. The assay is classed as cell-based. As to the method: FRET Assay Preparation. The HCV FRET screening assay was performed in 96-well cell culture plates. The FRET peptide (Anaspec, Inc.) (Taliani et al., Anal. Biochem. 1996, 240, 60-67) contains a fluorescence donor, EDANS, near one end of the peptide and an acceptor, DABCYL, near the other end. The fluorescence of the peptide is quenched by […] resonance energy transfer (RET) between the donor and the acceptor, but as the NS3 protease cleaves the peptide the products are released from RET quenching and the fluorescence of the donor becomes apparent. The assay reagent was made as follows: 5× cell Luciferase cell culture lysis reagent from Promega (#E153A) diluted to 1× with dH2O, NaCl added to 150 mM final, the FRET peptide diluted to 20 μM final from a 2 mM stock.
To prepare plates, HCV replicon cells, with or without a Renilla luciferase reporter gene, were trypsinized and plated in a 96-well plate with titrated test compounds added in columns 3 through 12; columns 1 and 2 contained a control compound (HCV control inhibitor), and the bottom row contained cells with DMSO only. The plates were then placed in a CO2 incubator at 37° C.
Assays. Subsequent to addition of the test compounds described above (FRET Assay Preparation), at various times the plate was removed and Alamar blue solution (Trek Diagnostics, #00-100) was added to measure cellular toxicity. After reading in a Cytoflour 4000 instrument (PE Biosystems), plates were rinsed with PBS and then used for FRET assay by the addition of 30 ul of the FRET peptide assay reagent described above (FRET Assay Preparation) per well. The plate was then placed into the Cytoflour 4000 instrument which had been set to 340 excite/490 emission, automatic mode for up to 20 cycles and the plate read in a kinetic mode. Typically, the signal to noise using an endpoint analysis after the reads was at least three-fold. Alternatively, after Alamar blue reading, plates were rinsed with PBS, then used for luciferase assay using the Promega Dual-Glo Luciferase Assay System or the Promega EnduRen Live Cell Substrate assay.
Compound analysis was performed by quantification of the relative HCV replicon inhibition and the relative cytotoxicity values. To calculate cytoxicity values, the average Alamar Blue fluorescence signals from the control wells were set as 100% non-toxic. The individual signals in each of the compound test wells were then divided by the average control signal and multiplied by 100% to determine […]. To calculate the HCV replicon inhibition values, an average background value was obtained from the two wells containing the highest amount of HCV control inhibitor at the end of the assay period. These numbers were similar to those obtained from naïve Huh-7 cells. The background numbers were then subtracted from the average signal obtained from the control wells and this number was used as 100% activity. The individual signals in each of the compound test wells were then divided by the averaged control values after background subtraction and multiplied by 100% to determine percent activity. EC50 values were calculated as the concentration which caused a 50% reduction in FRET or luciferase activity. The two numbers generated for the compound plate, percent cytoxicity and percent activity, were used to determine compounds of interest for further analysis.
For orientation: In antiviral work, replicon cells carry a viral genome segment that copies itself.

Structures are written as SMILES. Like-named read-outs stand apart in the source and are kept apart here.

T1 sequence (Q9WMX2 2420-2992): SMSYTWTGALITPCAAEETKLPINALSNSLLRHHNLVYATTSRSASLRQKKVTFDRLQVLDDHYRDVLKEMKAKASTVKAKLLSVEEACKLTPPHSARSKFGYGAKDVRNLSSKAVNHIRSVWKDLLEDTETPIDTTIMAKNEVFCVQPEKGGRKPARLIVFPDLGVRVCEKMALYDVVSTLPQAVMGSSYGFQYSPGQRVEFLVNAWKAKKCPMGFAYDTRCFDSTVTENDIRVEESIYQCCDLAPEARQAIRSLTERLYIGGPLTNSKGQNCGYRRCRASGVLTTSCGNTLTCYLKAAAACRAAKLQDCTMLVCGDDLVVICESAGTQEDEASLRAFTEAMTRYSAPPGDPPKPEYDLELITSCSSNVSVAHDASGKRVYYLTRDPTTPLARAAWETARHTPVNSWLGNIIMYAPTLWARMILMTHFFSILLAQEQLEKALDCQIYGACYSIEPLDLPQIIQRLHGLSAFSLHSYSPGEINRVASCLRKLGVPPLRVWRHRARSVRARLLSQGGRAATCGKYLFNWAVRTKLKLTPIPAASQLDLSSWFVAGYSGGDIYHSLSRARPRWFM

By IC50 is commonly meant the concentration needed to halve the response being measured. Read a low IC50 as higher potency. Usually EC50 stands for the concentration that produces a half-maximal response. Low readings indicate greater potency, high ones weaker potency. On HCV NS5B, `COc1ccc2c(c1)C1CC1(C(=O)N1CCCC3(CCN(C)C3)C1)Cn1c-2c(C2CCCCC2)c2ccc(C(=O)NS(=O)(=O)C(C)C)cc21` (stereo not drawn) [drawing 24] returned an IC50 of 4.58 to 500 nM. Further, the EC50 in the assay on HCV replicon cells was 4.58 to 500 nM.

For the compound `CCCS(=O)(=O)NC(=O)c1ccc2c(C3CCCCC3)c3n(c2c1)CC1(C(=O)N2CCCC4(CCN(C)C4)C2)CC1c1cc(OC)ccc1-3` (stereo not drawn) [drawing 25], the half-inhibitory concentration (IC50) on HCV NS5B was 4.58 to 500 nM. Moreover, the EC50 in the assay on HCV replicon cells (Hepatitis C virus) lay within 4.58 to 500 nM.

The compound `CCCS(=O)(=O)NC(=O)c1ccc2c(C3CCCCC3)c3n(c2c1)CC1(C(=O)N2CCCC4(CCN(C)C4)C2)CC1c1cc(OC)ccc1-3` (stereo not drawn) [drawing 26] registered an IC50 on HCV NS5B of 4.58 to 500 nM. This compound gave an EC50 in the assay on HCV replicon cells of 4.58 to 500 nM.
